According to patent US20250099423A1, “PIPERAZINE-BASED AGONISTS OF LFA-1 AND VLA-4” (Texas Heart Institute, priority 2021, published 2025):

Experiments:
[1] = molecular target: T1, α4β1/VCAM-1 (Homo sapiens, UniProt P05556+P13612); assay: Static cell adhesion assay, Jurkat cells on VCAM-1 (α4β1/VCAM-1); format: cell-based; conditions: ratio compound activity/control THI0019 (average 33 μM) run on the same plate
T1 construct: The Jurkat (VCAM-1 assays) and HSB (ICAM-1 assays) cell lines were obtained from American Type Culture Collection; endogenous in cells; host or cells: Jurkat cells (ATCC)
Protocol: (§1) For in vitro cell adhesion assays, compounds were dissolved in DMSO to make a series of stock solutions such that a 1:100 dilution in assay buffer would yield the desired final working concentrations in 1% DMSO (vehicle). Human VCAM-1 and ICAM-1 were purchased from R&D Systems (Minneapolis, MN). The Jurkat (VCAM-1 assays) and HSB (ICAM-1 assays) cell lines were obtained from American Type Culture Collection (Manassas, VA) and were maintained in recommended culture media.
(§2) Assays were performed as previously described in 1. Vanderslice, P., Woodside, D. G., Caivano, A. R., Decker, E. R., Munsch, C. L., Sherwood, S. J., Lejeune, W. S., Miyamoto, Y. J., McIntyre, B. W., Tilton, R. G., and Dixon, R. A. (2010) Potent in vivo suppression of inflammation by selectively targeting the high affinity conformation of integrin alpha4beta1. Biochem Biophys Res Commun 400, 619-624; and 2. Vanderslice, P., Biediger, R. J., Woodside, D. G., Brown, W. S., Khounlo, S., Warier, N. D., Gundlach, C. W. t., Caivano, A. R., Bornmann, W. G., Maxwell, D. S., McIntyre, B. W., Willerson, J. T., and Dixon, R. A. (2013) Small molecule agonist of very late antigen-4 (VLA-4) integrin induces progenitor cell adhesion. J Biol Chem 288, 19414-19428. VCAM-1 or ICAM-1 ligand in 50 μL of 50 mM Tris-HCl (pH 7.4), 150 mM NaCl, (TBS) was added to wells of a 96-well plate and allowed to coat overnight at 4° C. To maximize the window to evaluate agonist activity, a sub-optimal coating concentration of ligand was used, typically between 0.5 and 5 μg/mL in 50 μL TBS for VCAM-1 and ICAM-1 respectively. This ligand concentration corresponded approximately to that which would yield≤ 5% adhesion as determined by dose-response curves. Briefly, 2×10^6 cells were labeled for 30 minutes with calcein-AM (Molecular Probes), washed, resuspended in binding buffer, and added to triplicate wells of ligand-coated plates (2×10^5 cells/well) that had been blocked with 2% BSA. After a 30-minute incubation at 37° C., the plates were washed 3 times with binding buffer, the adherent cells were lysed, and fluorescence was measured on a Tecan Safire^2 plate reader. The binding buffer was PBS with 1 mM MgCl2, 50% FBS for α4β1/VCAM-1 assays and PBS with 2 mM MgCl2, 5 mM EGTA, 50% FBS for αLβ2/ICAM-1 assays. EC50 is defined as the concentration of compound required to achieve 50% of the maximal response.

[2] = molecular target: T2, LFA-1 (Homo sapiens, UniProt P05107+P20701); assay: Static cell adhesion assay, HSB cells on ICAM-1 (αLβ2/ICAM-1; LFA-1); format: cell-based; conditions: Dose 3 μM, compound and THI0349 at the same concentration; ratio >1 = more potent agonist
T2 construct: The Jurkat (VCAM-1 assays) and HSB (ICAM-1 assays) cell lines were obtained from American Type Culture Collection; endogenous in cells; host or cells: HSB cells (ATCC)
Protocol: as §1, §2
THI0019 and THI0349 (average 11 μM) reported values here were obtained under the assay conditions reported herein and ran higher in the presence of serum than those values under different assay conditions. […] Relative to THI0019 (average 33 μM) as a control against CS1, the ratio of (compound activity/control) is as follows: Group I< or =1. Group II at least a ratio of >1 up to 2× that of THI0019 ran on the same plate; Group III is >2× of THI0019 but less than 5×; and Group IV>5× of THI0019 (with an upper limit of approximately 200 mM). In relation to LAD (Leukocyte Adhesion Deficiency), LFA-1 ratios are determined by dividing the relative fluorescence units (RFU) of each compound over that of the reference standard of THI0349, (RFU Compound/RFU of THI0349). Against LFA-1, the signal for THI0349 at 3 μM was compared to the claimed compounds at the same concentration.

T1 sequence (P13612 34-1032): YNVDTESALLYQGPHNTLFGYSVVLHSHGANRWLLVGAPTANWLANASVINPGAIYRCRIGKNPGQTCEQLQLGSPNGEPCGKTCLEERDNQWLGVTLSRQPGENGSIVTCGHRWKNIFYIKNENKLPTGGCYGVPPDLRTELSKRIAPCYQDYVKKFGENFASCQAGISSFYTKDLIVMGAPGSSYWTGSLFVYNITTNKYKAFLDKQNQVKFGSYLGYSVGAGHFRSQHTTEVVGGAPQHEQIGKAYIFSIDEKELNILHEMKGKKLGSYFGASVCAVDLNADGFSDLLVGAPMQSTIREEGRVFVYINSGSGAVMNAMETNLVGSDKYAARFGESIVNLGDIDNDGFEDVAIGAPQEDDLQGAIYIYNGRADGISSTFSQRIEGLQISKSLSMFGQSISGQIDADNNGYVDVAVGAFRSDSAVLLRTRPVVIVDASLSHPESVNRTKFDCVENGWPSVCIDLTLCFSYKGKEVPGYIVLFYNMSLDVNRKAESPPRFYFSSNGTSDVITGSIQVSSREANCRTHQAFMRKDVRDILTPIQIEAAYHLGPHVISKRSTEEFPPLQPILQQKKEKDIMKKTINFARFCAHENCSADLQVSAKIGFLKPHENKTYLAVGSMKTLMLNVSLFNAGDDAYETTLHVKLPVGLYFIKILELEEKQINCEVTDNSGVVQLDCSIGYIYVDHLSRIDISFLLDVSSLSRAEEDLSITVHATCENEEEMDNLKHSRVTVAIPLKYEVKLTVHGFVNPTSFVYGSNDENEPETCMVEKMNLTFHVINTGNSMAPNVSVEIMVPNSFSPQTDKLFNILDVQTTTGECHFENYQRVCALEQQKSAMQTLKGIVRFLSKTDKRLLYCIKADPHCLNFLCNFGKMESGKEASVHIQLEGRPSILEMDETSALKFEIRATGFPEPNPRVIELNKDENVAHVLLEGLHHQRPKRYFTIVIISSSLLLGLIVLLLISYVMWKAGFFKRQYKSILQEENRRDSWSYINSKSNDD
T1 sequence (P05556 21-798): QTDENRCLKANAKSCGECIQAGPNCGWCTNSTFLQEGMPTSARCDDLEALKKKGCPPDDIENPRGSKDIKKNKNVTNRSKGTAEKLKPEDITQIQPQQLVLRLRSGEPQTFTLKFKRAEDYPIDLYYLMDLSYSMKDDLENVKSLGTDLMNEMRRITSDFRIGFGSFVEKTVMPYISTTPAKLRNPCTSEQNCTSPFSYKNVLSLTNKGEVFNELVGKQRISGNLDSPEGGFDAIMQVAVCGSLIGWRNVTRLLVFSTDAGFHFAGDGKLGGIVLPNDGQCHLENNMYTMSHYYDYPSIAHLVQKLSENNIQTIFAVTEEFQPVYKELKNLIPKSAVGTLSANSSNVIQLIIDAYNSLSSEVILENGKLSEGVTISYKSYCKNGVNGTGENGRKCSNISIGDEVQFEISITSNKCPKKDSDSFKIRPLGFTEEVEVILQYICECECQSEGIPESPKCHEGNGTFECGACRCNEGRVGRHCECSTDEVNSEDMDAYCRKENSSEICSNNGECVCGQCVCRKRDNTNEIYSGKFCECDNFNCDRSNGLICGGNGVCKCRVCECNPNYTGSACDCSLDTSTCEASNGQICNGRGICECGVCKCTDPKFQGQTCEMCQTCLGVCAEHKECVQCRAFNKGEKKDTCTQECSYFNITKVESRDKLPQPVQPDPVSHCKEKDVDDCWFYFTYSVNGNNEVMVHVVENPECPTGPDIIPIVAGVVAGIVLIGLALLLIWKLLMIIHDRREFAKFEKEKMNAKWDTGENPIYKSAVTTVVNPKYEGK
T2 sequence (P20701 26-1170): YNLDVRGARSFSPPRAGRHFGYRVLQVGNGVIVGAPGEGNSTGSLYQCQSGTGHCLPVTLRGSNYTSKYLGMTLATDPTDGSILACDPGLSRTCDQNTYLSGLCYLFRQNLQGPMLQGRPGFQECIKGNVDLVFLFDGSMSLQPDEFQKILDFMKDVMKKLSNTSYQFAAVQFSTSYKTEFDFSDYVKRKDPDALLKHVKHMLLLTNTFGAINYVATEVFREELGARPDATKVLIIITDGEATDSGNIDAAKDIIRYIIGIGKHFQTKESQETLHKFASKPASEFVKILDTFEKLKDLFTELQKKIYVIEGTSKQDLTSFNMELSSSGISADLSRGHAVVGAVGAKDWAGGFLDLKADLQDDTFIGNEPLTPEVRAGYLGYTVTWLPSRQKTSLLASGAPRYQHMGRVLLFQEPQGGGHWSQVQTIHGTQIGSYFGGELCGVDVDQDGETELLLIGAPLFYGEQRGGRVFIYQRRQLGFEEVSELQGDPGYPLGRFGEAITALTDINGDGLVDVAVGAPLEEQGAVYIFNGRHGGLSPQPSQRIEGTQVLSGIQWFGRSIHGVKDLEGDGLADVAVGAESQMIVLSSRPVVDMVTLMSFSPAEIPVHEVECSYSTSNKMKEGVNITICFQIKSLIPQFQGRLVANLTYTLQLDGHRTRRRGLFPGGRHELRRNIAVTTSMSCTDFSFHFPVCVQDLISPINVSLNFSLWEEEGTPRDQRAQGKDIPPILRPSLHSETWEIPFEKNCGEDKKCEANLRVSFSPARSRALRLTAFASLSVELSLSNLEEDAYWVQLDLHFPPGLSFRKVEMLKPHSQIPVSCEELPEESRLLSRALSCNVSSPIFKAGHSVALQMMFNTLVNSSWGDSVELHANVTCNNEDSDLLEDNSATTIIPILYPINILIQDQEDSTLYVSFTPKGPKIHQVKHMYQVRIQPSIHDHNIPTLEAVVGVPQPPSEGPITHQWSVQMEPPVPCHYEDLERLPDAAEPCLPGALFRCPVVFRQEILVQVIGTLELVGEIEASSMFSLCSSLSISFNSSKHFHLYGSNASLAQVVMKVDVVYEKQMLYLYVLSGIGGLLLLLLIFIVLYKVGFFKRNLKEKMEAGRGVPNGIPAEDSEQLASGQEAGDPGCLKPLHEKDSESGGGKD
T2 sequence (P05107 23-769): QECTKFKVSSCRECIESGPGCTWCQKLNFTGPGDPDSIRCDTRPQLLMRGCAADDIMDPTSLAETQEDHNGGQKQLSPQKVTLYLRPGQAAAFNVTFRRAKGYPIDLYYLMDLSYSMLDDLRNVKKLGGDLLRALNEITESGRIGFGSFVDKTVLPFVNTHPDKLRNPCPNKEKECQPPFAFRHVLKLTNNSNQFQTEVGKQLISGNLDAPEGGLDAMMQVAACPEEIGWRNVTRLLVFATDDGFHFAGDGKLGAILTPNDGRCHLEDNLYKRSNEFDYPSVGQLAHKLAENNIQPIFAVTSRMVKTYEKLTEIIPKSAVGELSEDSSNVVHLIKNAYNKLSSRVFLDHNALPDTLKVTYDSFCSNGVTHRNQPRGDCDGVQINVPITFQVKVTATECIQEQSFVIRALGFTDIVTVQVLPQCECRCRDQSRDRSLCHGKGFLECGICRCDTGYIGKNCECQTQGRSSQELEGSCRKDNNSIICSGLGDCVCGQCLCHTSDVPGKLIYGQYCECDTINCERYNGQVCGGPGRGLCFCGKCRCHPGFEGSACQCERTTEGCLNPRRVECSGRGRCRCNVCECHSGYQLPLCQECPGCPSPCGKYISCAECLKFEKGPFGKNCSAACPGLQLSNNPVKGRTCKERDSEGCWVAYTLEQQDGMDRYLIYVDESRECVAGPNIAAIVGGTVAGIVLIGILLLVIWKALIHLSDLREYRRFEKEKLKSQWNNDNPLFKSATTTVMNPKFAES

## COc1ccc(CN(Cc2ccc(OC)cc2)C(=O)CN2CCN(C(=O)Cc3cccc(OC)c3)CC2=O)cc1 [N,N-bis(4-methoxybenzyl)-2-(4-(2-(3-methoxyphenyl)acetyl)-2-oxopiperazin-1-yl)acetamide]
[1]
  Average Ratio Compound to THI0019 (Activity against CS1): Group III (Group III is >2× of THI0019 but less than 5×)
[2]
  LAD Raw Fluorescence Units against LFA-1; Ratio of raw counts Compound/THI0349: 0.5 fold response

## COc1ccc(CN(Cc2ccc(OC)cc2)C(=O)CN2CCN(Cc3cccc(OC)c3)CC2=O)cc1 [N,N-bis(4-methoxybenzyl)-2-(4-(3-methoxybenzyl)-2-oxopiperazin-1-yl)acetamide]
[1]
  Average Ratio Compound to THI0019 (Activity against CS1): Group IV (Group IV>5× of THI0019 (with an upper limit of approximately 200 mM))
[2]
  LAD Raw Fluorescence Units against LFA-1; Ratio of raw counts Compound/THI0349: 1.1 fold increased response

## COc1ccc(CN(Cc2ccc(N(C)C)cc2)C(=O)CN2CCN(C(=O)c3cccc(OC)c3)CC2=O)cc1 [N-(4-(dimethylamino)benzyl)-2-(4-(3-methoxybenzoyl)-2-oxopiperazin-1-yl)-N-(4-methoxybenzyl)acetamide]
[1]
  Average Ratio Compound to THI0019 (Activity against CS1): Group IV (Group IV>5× of THI0019 (with an upper limit of approximately 200 mM))
[2]
  LAD Raw Fluorescence Units against LFA-1; Ratio of raw counts Compound/THI0349: 1.2 fold increased response

## COc1ccc(CN(Cc2ccc(N(C)C)cc2)C(=O)CN2CCN(C(=O)OCc3ccccc3)CC2)cc1 [benzyl 4-(2-((4-(dimethylamino)benzyl)(4-methoxybenzyl)amino)-2-oxoethyl)piperazine-1-carboxylate]
[1]
  Average Ratio Compound to THI0019 (Activity against CS1): Group III (Group III is >2× of THI0019 but less than 5×)
[2]
  LAD Raw Fluorescence Units against LFA-1; Ratio of raw counts Compound/THI0349: 1.2 fold increased response

## COc1ccc(CN(Cc2ccc(O)cc2)C(=O)CN2CCN(C(=O)OCc3ccccc3)CC2)cc1 [benzyl 4-(2-((4-hydroxybenzyl)(4-methoxybenzyl)amino)-2-oxoethyl)piperazine-1-carboxylate]
[1]
  Average Ratio Compound to THI0019 (Activity against CS1): Group II (Group II at least a ratio of >1 up to 2× that of THI0019 ran on the same plate)
[2]
  LAD Raw Fluorescence Units against LFA-1; Ratio of raw counts Compound/THI0349: 1.3 fold increased response

## COc1cccc(CN(Cc2cccc(OC)c2)C(=O)CN2CCN(C(=O)OCc3ccccc3)CC2)c1 [benzyl 4-(2-(bis(3-methoxybenzyl)amino)-2-oxoethyl)piperazine-1-carboxylate]
[1]
  Average Ratio Compound to THI0019 (Activity against CS1): Group I (Group I< or =1)
[2]
  LAD Raw Fluorescence Units against LFA-1; Ratio of raw counts Compound/THI0349: 1.42 fold increased response

## O=C(CN1CCN(C(=O)OCc2ccccc2)CC1)N(Cc1ccc(O)cc1)Cc1ccc(O)cc1 [benzyl 4-(2-(bis(4-hydroxybenzyl)amino)-2-oxoethyl)piperazine-1-carboxylate]
[1]
  Average Ratio Compound to THI0019 (Activity against CS1): Group I (Group I< or =1)
[2]
  LAD Raw Fluorescence Units against LFA-1; Ratio of raw counts Compound/THI0349: 0.3 fold response

## COc1ccc(CN(Cc2ccc(OC)cc2)C(=O)CN2CCN(C(=O)OCc3ccccc3)CC2)cc1 [benzyl 4-(2-(bis(4-methoxybenzyl)amino)-2-oxoethyl)piperazine-1-carboxylate]
[1]
  Average Ratio Compound to THI0019 (Activity against CS1): Group II (Group II at least a ratio of >1 up to 2× that of THI0019 ran on the same plate)
[2]
  LAD Raw Fluorescence Units against LFA-1; Ratio of raw counts Compound/THI0349: 3.3 fold increased response

## COc1ccc(CN(Cc2ccc(OC)cc2)C(=O)CCCN2CCN(C(=O)OCc3ccccc3)CC2)cc1 [benzyl 4-(4-(bis(4-methoxybenzyl)amino)-4-oxobutyl)piperazine-1-carboxylate]
[1]
  Average Ratio Compound to THI0019 (Activity against CS1): Group I (Group I< or =1)
[2]
  LAD Raw Fluorescence Units against LFA-1; Ratio of raw counts Compound/THI0349: 3 fold increased response

## COc1cccc(CN(Cc2cccc(OC)c2)C(=O)CCCCN2CCN(C(=O)OCc3ccccc3)CC2)c1 [benzyl 4-(5-(bis(3-methoxybenzyl)amino)-5-oxopentyl)piperazine-1-carboxylate]
[1]
  Average Ratio Compound to THI0019 (Activity against CS1): Group II (Group II at least a ratio of >1 up to 2× that of THI0019 ran on the same plate)
[2]
  LAD Raw Fluorescence Units against LFA-1; Ratio of raw counts Compound/THI0349: 3.9 fold increased response

## COc1ccc(CN(Cc2ccc(OC)cc2)C(=O)CCCCN2CCN(C(=O)OCc3ccccc3)CC2)cc1 [benzyl 4-(5-(bis(4-methoxybenzyl)amino)-5-oxopentyl)piperazine-1-carboxylate]
[1]
  Average Ratio Compound to THI0019 (Activity against CS1): Group II (Group II at least a ratio of >1 up to 2× that of THI0019 ran on the same plate)
[2]
  LAD Raw Fluorescence Units against LFA-1; Ratio of raw counts Compound/THI0349: 4.3 fold increased response

## O=C(CCCCN1CCN(C(=O)OCc2ccccc2)CC1)N(Cc1cccs1)Cc1cccs1 [benzyl 4-(5-(bis(thiophen-2-ylmethyl)amino)-5-oxopentyl)piperazine-1-carboxylate]
[1]
  Average Ratio Compound to THI0019 (Activity against CS1): Group I (Group I< or =1)
[2]
  LAD Raw Fluorescence Units against LFA-1; Ratio of raw counts Compound/THI0349: 0.9 fold response

## COc1cccc(CN(Cc2cccc(OC)c2)C(=O)OCCN2CCN(CCOC(=O)N(Cc3cccc(OC)c3)Cc3cccc(OC)c3)CC2)c1 [piperazine-1,4-diylbis(ethane-2,1-diyl) bis(bis(3-methoxybenzyl)carbamate)]
[1]
  Average Ratio Compound to THI0019 (Activity against CS1): Group I (Group I< or =1)
[2]
  LAD Raw Fluorescence Units against LFA-1; Ratio of raw counts Compound/THI0349: 4.7 fold increased response
